According to paper PMC7932537, “Quantitative profiling of protease specificity” (PLoS Computational Biology, 2021):

Assays:
[1] = biological target: MMP-9 (Homo sapiens, UniProt P14780); assay: K(obs) of individual phage substrates (set of 1369); format: biochemical; conditions: MMP9
[2] = test system: MMP-2; assay: Substrate phage display with NGS: relative probability (RP) of P3-P1' tetramer clusters; format: biochemical, human; conditions: MMP2;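 further: ratio of tetramer probability after protease selection to that in naive phage library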
[3] = biological target: T1, MMP-2 (Homo sapiens, UniProt P08253); assay: K(obs) of individual phage substrates (set of 1369); format: biochemical; conditions: MMP2
T1 sequence (P08253 110-660): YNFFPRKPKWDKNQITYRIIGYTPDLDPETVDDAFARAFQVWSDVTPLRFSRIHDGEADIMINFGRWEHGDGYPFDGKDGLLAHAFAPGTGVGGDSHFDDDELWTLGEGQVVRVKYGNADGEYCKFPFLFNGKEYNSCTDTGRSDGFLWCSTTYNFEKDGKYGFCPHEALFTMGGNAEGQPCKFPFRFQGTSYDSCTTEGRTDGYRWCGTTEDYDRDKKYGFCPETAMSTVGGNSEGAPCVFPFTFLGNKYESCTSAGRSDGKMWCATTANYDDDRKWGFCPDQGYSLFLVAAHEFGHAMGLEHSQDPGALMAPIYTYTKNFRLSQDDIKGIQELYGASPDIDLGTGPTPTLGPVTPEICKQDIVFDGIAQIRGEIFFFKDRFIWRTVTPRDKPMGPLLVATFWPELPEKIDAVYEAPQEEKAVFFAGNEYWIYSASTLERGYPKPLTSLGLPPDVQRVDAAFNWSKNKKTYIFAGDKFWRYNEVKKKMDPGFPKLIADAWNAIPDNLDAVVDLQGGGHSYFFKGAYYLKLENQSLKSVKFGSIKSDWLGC

[4] = individual phage substrates, set of 1369 peptides, hyphen in sequence marks cleavage position
[5] = RP of the P3-P1' tetramer contained in the substrate (substrate phage display with NGS)
[6] = individual phage substrates, set of 1369 peptides, cleavage position marked by hyphen in sequence
[7] = individual phage substrate of the set of 1369 peptides, dash in the sequence marks the cleavage position
[8] = RP of the P3-P1' tetramer contained in the substrate
[9] = individual phage substrate of the set of 1369 peptides, cleavage position marked by '-'

Sequence of MMP-9 (P14780 94-707): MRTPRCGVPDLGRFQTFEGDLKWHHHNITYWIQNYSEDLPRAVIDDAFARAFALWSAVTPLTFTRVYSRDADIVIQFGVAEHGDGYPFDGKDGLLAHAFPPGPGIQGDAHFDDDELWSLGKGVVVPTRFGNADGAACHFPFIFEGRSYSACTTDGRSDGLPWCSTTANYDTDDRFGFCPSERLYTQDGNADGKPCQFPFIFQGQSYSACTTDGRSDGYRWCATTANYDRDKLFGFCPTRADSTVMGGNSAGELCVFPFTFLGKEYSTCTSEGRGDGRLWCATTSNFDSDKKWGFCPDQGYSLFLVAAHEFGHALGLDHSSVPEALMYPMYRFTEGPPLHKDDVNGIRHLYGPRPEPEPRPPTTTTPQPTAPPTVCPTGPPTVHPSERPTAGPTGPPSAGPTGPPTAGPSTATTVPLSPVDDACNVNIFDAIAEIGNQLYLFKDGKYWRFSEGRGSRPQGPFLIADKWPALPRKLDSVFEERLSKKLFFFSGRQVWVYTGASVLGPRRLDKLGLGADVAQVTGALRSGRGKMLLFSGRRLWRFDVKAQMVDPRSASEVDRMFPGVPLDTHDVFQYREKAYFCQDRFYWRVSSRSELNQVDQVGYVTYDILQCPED

Substance | Kobs [1, 4] | relative probability (RP) [2, 5] | Kobs [3, 6] | Kobs [1, 7] | relative probability (RP) [2, 8] | Kobs [3, 9]
GVLQK-LVTAS | 0 M⁻¹ s⁻¹ | 13.1993 | 654.784 M⁻¹ s⁻¹ | – | – | –
NKVYA-WTASG | 1711.63 M⁻¹ s⁻¹ | 0.6193 | 799.117 M⁻¹ s⁻¹ | – | – | –
LLFSQ-LTASG | 0 M⁻¹ s⁻¹ | 9.065 | 8941.32 M⁻¹ s⁻¹ | – | – | –
SGVRF-LMNTA | – | – | – | 9740.44 M⁻¹ s⁻¹ | 15.0438 | 1418.96 M⁻¹ s⁻¹
GSGRH-LIKVT | 27.918 M⁻¹ s⁻¹ | 3.598 | 386.839 M⁻¹ s⁻¹ | – | – | –
DKLAS-LTASG | – | – | – | 0 M⁻¹ s⁻¹ | 31.1996 | 12792.1 M⁻¹ s⁻¹
RRPTN-LTASG | – | – | – | 12792.1 M⁻¹ s⁻¹ | 31.0288 | 12792.1 M⁻¹ s⁻¹
YDVYN-LTASG | – | – | – | 7815.03 M⁻¹ s⁻¹ | 19.1818 | 3253.29 M⁻¹ s⁻¹
IAFSQ-LTASG | 0 M⁻¹ s⁻¹ | 9.065 | 6688.74 M⁻¹ s⁻¹ | – | – | –
SGGSG-LRVLK | – | – | – | 355.093 M⁻¹ s⁻¹ | 1.9698 | 654.784 M⁻¹ s⁻¹
SGSRA-LTASG | – | – | – | 951.362 M⁻¹ s⁻¹ | 12.4506 | 2097.28 M⁻¹ s⁻¹
GIPRP-VMTAS | – | – | – | 6131.32 M⁻¹ s⁻¹ | 29.4989 | 6688.74 M⁻¹ s⁻¹
PKGYA-LTASG | – | – | – | 3850.82 M⁻¹ s⁻¹ | 0.5867 | 2615.58 M⁻¹ s⁻¹
FGPYA-MTASG | – | – | – | 12792.1 M⁻¹ s⁻¹ | 28.0901 | 1870.4 M⁻¹ s⁻¹
FMPRN-TASGA | – | – | – | 12792.1 M⁻¹ s⁻¹ | 2.5391 | 2837.92 M⁻¹ s⁻¹
SGPRG-QVFTA | – | – | – | 8941.32 M⁻¹ s⁻¹ | 29.4864 | 12792.1 M⁻¹ s⁻¹
VRWSW-LTASG | – | – | – | 0 M⁻¹ s⁻¹ | 7.878 | 2038.8 M⁻¹ s⁻¹
GSGRA-MYGTT | – | – | – | 2476.66 M⁻¹ s⁻¹ | 2.5449 | 1513.13 M⁻¹ s⁻¹

Substance | Kobs [1, 4] | relative probability (RP) [2, 5] | Kobs [3, 6] | Kobs [1, 7] | relative probability (RP) [2, 8] | Kobs [3, 9]
SGRRN-LMNTA | 484.315 M⁻¹ s⁻¹ | 6.1579 | 912.511 M⁻¹ s⁻¹ | – | – | –
LVGNS-LTASG | 0 M⁻¹ s⁻¹ | 0.2884 | 1981.53 M⁻¹ s⁻¹ | – | – | –
SGPHG-FFQTA | – | – | – | 551.253 M⁻¹ s⁻¹ | 21.975 | 171.876 M⁻¹ s⁻¹
ERSLA-WTASG | – | – | – | 113.394 M⁻¹ s⁻¹ | 18.2943 | 2157.02 M⁻¹ s⁻¹
RTPMA-MTASG | – | – | – | 3637.04 M⁻¹ s⁻¹ | 30.2676 | 2837.92 M⁻¹ s⁻¹
ELMLS-MTASG | 142.481 M⁻¹ s⁻¹ | 5.234 | 2157.02 M⁻¹ s⁻¹ | – | – | –
GWPNA-FLTAS | – | – | – | 231.616 M⁻¹ s⁻¹ | 16.8865 | 5667.28 M⁻¹ s⁻¹
PRVML-LTASG | 1112.44 M⁻¹ s⁻¹ | 0.4692 | 142.481 M⁻¹ s⁻¹ | – | – | –
GRVAY-LSTAS | – | – | – | 56.119 M⁻¹ s⁻¹ | 26.5348 | 8941.32 M⁻¹ s⁻¹
GAPRS-LQTAS | – | – | – | 12792.1 M⁻¹ s⁻¹ | 33.3704 | 12792.1 M⁻¹ s⁻¹
VYWGN-MTASG | 27.918 M⁻¹ s⁻¹ | 3.723 | 4082.43 M⁻¹ s⁻¹ | – | – | –
MSLGY-LTASG | – | – | – | 0 M⁻¹ s⁻¹ | 24.8925 | 12792.1 M⁻¹ s⁻¹
KFWFN-LTASG | – | – | – | 0 M⁻¹ s⁻¹ | 0 | 0 M⁻¹ s⁻¹
ERFSH-LTASG | – | – | – | 231.616 M⁻¹ s⁻¹ | 16.5216 | 2344.36 M⁻¹ s⁻¹
AMPLH-MTASG | 7386.83 M⁻¹ s⁻¹ | 30.0095 | 6688.74 M⁻¹ s⁻¹ | – | – | –
WMPLG-MTASG | – | – | – | 12792.1 M⁻¹ s⁻¹ | 34.1118 | 5461.43 M⁻¹ s⁻¹
GRVEL-LYTAS | 0 M⁻¹ s⁻¹ | 0 | 0 M⁻¹ s⁻¹ | – | – | –
